Experimental data published in PubChem BioAssay (NCI).
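These data come from cells grown in 96-well plates and exposed to compound for 48 hours at five concentrations. GI50 = concentration required for 50% inhibition of growth. TGI is the concentration that stops growth completely.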

Tests used:
Experiment in all cases: growth of human tumour cells (NCI), 48 h
HCT-116 colon = tested on: HCT-116 colon
EKVX NSCLC = tested on: EKVX NSCLC
MDA-MB-231 breast = tested on: MDA-MB-231 breast
MOLT-4 leukemia = tested on: MOLT-4 leukemia
DU-145 prostate = tested on: DU-145 prostate
UO-31 renal = tested on: UO-31 renal
786-0 renal = tested on: 786-0 renal
UACC-62 melanoma = tested on: UACC-62 melanoma
SF-268 CNS = tested on: SF-268 CNS
SK-OV-3 ovarian = tested on: SK-OV-3 ovarian
NCI-H226 lung = tested on: NCI-H226 lung
TK-10 renal = tested on: TK-10 renal
OVCAR-8 ovarian = tested on: OVCAR-8 ovarian
SF-539 CNS = tested on: SF-539 CNS
SK-MEL-28 melanoma = tested on: SK-MEL-28 melanoma
SNB-19 CNS = tested on: SNB-19 CNS
PC-3 prostate = tested on: PC-3 prostate
RPMI-8226 leukemia = tested on: RPMI-8226 leukemia
K-562 leukemia = tested on: K-562 leukemia
NCI/ADR-RES ovarian = tested on: NCI/ADR-RES ovarian
HCT-15 colon = tested on: HCT-15 colon
COLO 205 colon = tested on: COLO 205 colon
HCC-2998 colon = tested on: HCC-2998 colon
OVCAR-5 ovarian = tested on: OVCAR-5 ovarian
OVCAR-3 ovarian = tested on: OVCAR-3 ovarian
MDA-MB-435 = tested on: MDA-MB-435
BT-549 breast = tested on: BT-549 breast
HL-60(TB) leukemia = tested on: HL-60(TB) leukemia
SK-MEL-5 melanoma = tested on: SK-MEL-5 melanoma
MALME-3M melanoma = tested on: MALME-3M melanoma
KM12 colon = tested on: KM12 colon
NCI-H522 lung = tested on: NCI-H522 lung
LOX IMVI melanoma = tested on: LOX IMVI melanoma
OVCAR-4 ovarian = tested on: OVCAR-4 ovarian
U251 CNS = tested on: U251 CNS
CCRF-CEM leukemia = tested on: CCRF-CEM leukemia
NCI-H23 lung = tested on: NCI-H23 lung
CAKI-1 renal = tested on: CAKI-1 renal
SK-MEL-2 melanoma = tested on: SK-MEL-2 melanoma
HOP-92 NSCLC = tested on: HOP-92 NSCLC
SN12C renal = tested on: SN12C renal
NCI-H460 lung = tested on: NCI-H460 lung
A498 renal = tested on: A498 renal
UACC-257 melanoma = tested on: UACC-257 melanoma
SR leukemia = tested on: SR leukemia
MCF7 breast = tested on: MCF7 breast
M14 melanoma = tested on: M14 melanoma
ACHN renal = tested on: ACHN renal
SNB-75 CNS = tested on: SNB-75 CNS
IGROV1 ovarian = tested on: IGROV1 ovarian
SW-620 colon = tested on: SW-620 colon
A549 NSCLC = tested on: A549 NSCLC
T-47D breast = tested on: T-47D breast
HT29 colon = tested on: HT29 colon
HS 578T breast = tested on: HS 578T breast

Molecule `O=[N+]([O-])c1cccc(-c2cc(-c3cc(Br)ccc3O)[nH]n2)c1` has a GI50 (HCT-116 colon) of 1.46 µM, a TGI (HCT-116 colon) of 2.86 µM and a GI50 (EKVX NSCLC) of 2 µM. The TGI (EKVX NSCLC) was 7.91 µM, the GI50 (MDA-MB-231 breast) was 2.49 µM and the TGI (MDA-MB-231 breast) was 9.87 µM. For the same molecule, the GI50 (MOLT-4 leukemia) was 1.72 µM, the TGI (MOLT-4 leukemia) was 4.68 µM and the GI50 (DU-145 prostate) was 3.44 µM. For the same molecule, the TGI (DU-145 prostate) was 12.3 µM, the GI50 (UO-31 renal) was 2.34 µM and the TGI (UO-31 renal) was 9.38 µM. For the same molecule, the GI50 (786-0 renal) was 1.7 µM, the TGI (786-0 renal) was 4.08 µM and the GI50 (UACC-62 melanoma) was 2.63 µM. The TGI (UACC-62 melanoma) was 11.7 µM, the GI50 (SF-268 CNS) was 2.86 µM and the TGI (SF-268 CNS) was 12.7 µM. It also gave a GI50 (SK-OV-3 ovarian) of 2.37 µM, a TGI (SK-OV-3 ovarian) of 7.15 µM and a GI50 (NCI-H226 lung) of 3.66 µM. It also gave a TGI (NCI-H226 lung) of 27.2 µM, a GI50 (TK-10 renal) of 2.26 µM and a TGI (TK-10 renal) of 6.71 µM. The GI50 (OVCAR-8 ovarian) was 2.89 µM, the TGI (OVCAR-8 ovarian) was 10.5 µM and the GI50 (SF-539 CNS) was 2.89 µM. The TGI (SF-539 CNS) was 11 µM, the GI50 (SK-MEL-28 melanoma) was 2.88 µM and the TGI (SK-MEL-28 melanoma) was 10.5 µM. It also gave a GI50 (SNB-19 CNS) of 3.26 µM, a TGI (SNB-19 CNS) of 12.3 µM and a GI50 (PC-3 prostate) of 3.48 µM. The TGI (PC-3 prostate) was 7.7 µM, the GI50 (RPMI-8226 leukemia) was 1.47 µM and the TGI (RPMI-8226 leukemia) was 4.75 µM. It also gave a GI50 (K-562 leukemia) of 1.66 µM, a TGI (K-562 leukemia) of 4.57 µM and a GI50 (NCI/ADR-RES ovarian) of 3.11 µM. For the same molecule, the TGI (NCI/ADR-RES ovarian) was 8.94 µM, the GI50 (HCT-15 colon) was 2.53 µM and the TGI (HCT-15 colon) was 12.9 µM. It also gave a GI50 (COLO 205 colon) of 2.23 µM, a TGI (COLO 205 colon) of 5.16 µM and a GI50 (HCC-2998 colon) of 2.96 µM. It also gave a TGI (HCC-2998 colon) of 12.1 µM, a GI50 (OVCAR-5 ovarian) of 3.81 µM and a TGI (OVCAR-5 ovarian) of 14.9 µM. For the same molecule, the GI50 (OVCAR-3 ovarian) was 2.1 µM, the TGI (OVCAR-3 ovarian) was 5.8 µM and the GI50 (MDA-MB-435) was 1.77 µM. It also gave a TGI (MDA-MB-435) of 4.58 µM, a GI50 (BT-549 breast) of 1.26 µM and a TGI (BT-549 breast) of 4.61 µM. It also gave a GI50 (HL-60(TB) leukemia) of 1.15 µM, a TGI (HL-60(TB) leukemia) of 3.45 µM and a GI50 (SK-MEL-5 melanoma) of 1.61 µM. The TGI (SK-MEL-5 melanoma) was 3.35 µM, the GI50 (MALME-3M melanoma) was 2.21 µM and the TGI (MALME-3M melanoma) was 5.52 µM. For the same molecule, the GI50 (KM12 colon) was 2.13 µM, the TGI (KM12 colon) was 6 µM and the GI50 (NCI-H522 lung) was 1.49 µM. For the same molecule, the TGI (NCI-H522 lung) was 3.66 µM, the GI50 (LOX IMVI melanoma) was 2.73 µM and the TGI (LOX IMVI melanoma) was 8.62 µM. The GI50 (OVCAR-4 ovarian) was 3.45 µM, the TGI (OVCAR-4 ovarian) was 17.3 µM and the GI50 (U251 CNS) was 3.24 µM. For the same molecule, the TGI (U251 CNS) was 11.9 µM, the GI50 (CCRF-CEM leukemia) was 3.94 µM and the TGI (CCRF-CEM leukemia) was 19.9 µM. For the same molecule, the GI50 (NCI-H23 lung) was 2.06 µM, the TGI (NCI-H23 lung) was 6.11 µM and the GI50 (CAKI-1 renal) was 1.81 µM. The TGI (CAKI-1 renal) was 5.17 µM, the GI50 (SK-MEL-2 melanoma) was 1.99 µM and the TGI (SK-MEL-2 melanoma) was 6.53 µM. It also gave a GI50 (HOP-92 NSCLC) of 2.38 µM, a TGI (HOP-92 NSCLC) of 8.08 µM and a GI50 (SN12C renal) of 3.19 µM. For the same molecule, the TGI (SN12C renal) was 12.4 µM, the GI50 (NCI-H460 lung) was 1.9 µM and the TGI (NCI-H460 lung) was 10.4 µM. The GI50 (A498 renal) was 1.86 µM, the TGI (A498 renal) was 8.63 µM and the GI50 (UACC-257 melanoma) was 2.5 µM. For the same molecule, the TGI (UACC-257 melanoma) was 6.49 µM, the GI50 (SR leukemia) was 1.66 µM and the TGI (SR leukemia) was 4.8 µM. For the same molecule, the GI50 (MCF7 breast) was 1.42 µM, the TGI (MCF7 breast) was 7.05 µM and the GI50 (M14 melanoma) was 2.08 µM. The TGI (M14 melanoma) was 5.03 µM, the GI50 (ACHN renal) was 3.23 µM and the GI50 (SNB-75 CNS) was 2.68 µM. It also gave a TGI (SNB-75 CNS) of 14.5 µM, a GI50 (IGROV1 ovarian) of 2.27 µM and a TGI (IGROV1 ovarian) of 7.06 µM. For the same molecule, the GI50 (SW-620 colon) was 2.81 µM, the TGI (SW-620 colon) was 12.3 µM and the GI50 (A549 NSCLC) was 2.42 µM. It also gave a TGI (A549 NSCLC) of 6.68 µM, a GI50 (T-47D breast) of 2.64 µM and a TGI (T-47D breast) of 8.84 µM. It also gave a GI50 (HT29 colon) of 3.55 µM, a TGI (HT29 colon) of 12 µM and a GI50 (HS 578T breast) of 2.15 µM. The TGI (HS 578T breast) was 9.29 µM.
